In patent US12024512B2, “Cocrystal” (TAKEDA PHARMACEUTICAL COMPANY LIMITED, priority 2016, dated 2024):
Converted amounts (≈) assume the structure as drawn.

Experiments:
Type in all cases: physicochemical
[1] = Slurry experiment: crystal form of residue after stirring in test solvent; settings: about 25° C., 24 hr
Procedure: (§1) Powder X-ray diffraction measurement was performed using Cu-Kα radiation and measured by horizontal multipurpose X-ray diffraction system Ultima IV manufactured by Rigaku Corporation. Differential scanning calorimetric or thermogravimetric measurement was performed using DSC1/700/903-2 manufactured by Mettler Toledo or TGA/DSC1/LF/629-2 manufactured by Mettler Toledo and measured at temperature rise rate 5° C./min. Infrared spectrum was measured using Fourier transform infrared spectrophotometer Shimadzu IR Prestige-21 manufactured by Shimadzu Corporation and mounting Dura Sample IR II manufactured by Smiths Detection and by a total reflection method absorption measurement method at resolution 4 cm^−1. Raman spectroscopy was measured using RXN2 manufactured by Kaiser Optical Systems and a laser light source at excitation wavelength 1064 nm. Single crystal X-ray diffraction was measured using Cu-Kα radiation and curved imaging plate single crystal automatic X-ray structure analyzer R-AXIS RAPID II manufactured by Rigaku Corporation. Initial phase was determined by the direct method and the structure was refined by SHELXL-97. […] Intrinsic dissolution rate measurement was evaluated using a compression-molded disc of a crystal powder alone and in 20 mmoL/L sodium phosphate buffer (pH 6.8) containing 0.2% (w/v) sodium lauryl sulfate and by a rotating disc method (rotating speed: 100 rpm). Dissolution test was performed using a powder obtained by physically mixing a crystal powder and lactose in the same weight as the crystal powder and evaluated in Fasted State Simulated Intestinal Fluid (FaSSIF) at 37° C. by a rotating paddle method (paddle rotating speed: 50 rpm). The drug concentration of a solution was determined by liquid chromatography using Alliance HPLC system e2695 and detector 2789 manufactured by Waters (separation column: YMCPackPro C18 4.6 mm[…]×150 mm, temperature: 40° C., mobile phase: 20 mmol/L sodium phosphate buffer (pH 6.8)/acetonitrile=60/40 (v/v), flow rate: 1 mL/min, ultraviolet absorption detection wavelength: 240 nm). As slurry experiment, a test solvent was added to a crystal powder, the mixture was stirred at about 25° C. for 24 hr in suspension, the obtained residue was collected by filtration, and the crystal form was confirmed by powder X-ray diffraction measurement or Raman spectroscopy. In the recrystallization experiment, crystals were dissolved in ethanol, acetone, 2-propanol, tetrahydrofuran, methyl ethyl ketone, ethyl acetate, isopropyl acetate, anisole or isobutyl acetate at 55° C., filtered through a filter, allowed to cool to 5° C. or allowed to cool to 5° C. after adding n-heptane to the solution, and the crystal form of the obtained precipitate was confirmed by powder X-ray diffraction measurement or Raman spectroscopy.

[2] = Recrystallization experiment: crystal form of precipitate from organic solvent; settings: dissolved at 55° C., cooled to 5° C.
Procedure: as §1

[3] = Solubility in aqueous solutions after shaking each crystal at 37° C. for 24 hr; settings: thermodynamic from solid, 24 hr shaking
[4] = 2-propanol/n-heptane, n-heptane added
[5] = acetone/n-heptane, n-heptane added
[6] = anisole/n-heptane, n-heptane added
[7] = ethanol/n-heptane, n-heptane added
[8] = ethyl acetate/n-heptane, n-heptane added
[9] = isobutyl acetate/n-heptane, n-heptane added
[10] = isopropyl acetate/n-heptane, n-heptane added
[11] = methyl ethyl ketone/n-heptane, n-heptane added
[12] = tetrahydrofuran/n-heptane, n-heptane added

CCc1cc2c(c(OCC(F)(F)F)c(C(=O)NC3CCN(C(=O)CO)CC3)n2C)c(=O)n1CC(=O)c1ccccc1.O=C(O)C[C@H](O)C(=O)O [cocrystal with L-malic acid, cocrystal of 6-ethyl-N-[1-(hydroxyacetyl)piperidin-4-yl]-1-methyl-4-oxo-5-(2-oxo-2-phenylethyl)-3-(2,2,2-trifluoroethoxy)-4,5-dihydro-1H-pyrrolo[3,2-c]pyridine-2-carboxamide and L-malic acid]
Crystal form of residue after slurry experiment ([1]; 2-propanol): cocrystal *
Crystal form of residue after slurry experiment ([1]; acetone): cocrystal *
Crystal form of residue after slurry experiment ([1]; anisole): free form (solvate)
Crystal form of residue after slurry experiment ([1]; distilled water): cocrystal* + free form (solvate)
Crystal form of residue after slurry experiment ([1]; ethanol): cocrystal *
Crystal form of residue after slurry experiment ([1]; ethyl acetate): cocrystal* + free form (solvate)
Crystal form of residue after slurry experiment ([1]; methyl ethyl ketone): cocrystal* + free form (solvate)
Crystal form of residue after slurry experiment ([1]; tetrahydrofuran): free form (solvate)
Crystal form of precipitate obtained by recrystallization experiment ([2]; 2-propanol): no precipitate
Crystal form of precipitate obtained by recrystallization experiment [2, 4]: cocrystal *
Crystal form of precipitate obtained by recrystallization experiment ([2]; acetone): free form (solvate)
Crystal form of precipitate obtained by recrystallization experiment [2, 5]: free form (solvate)
Crystal form of precipitate obtained by recrystallization experiment ([2]; anisole): no precipitate
Crystal form of precipitate obtained by recrystallization experiment [2, 6]: free form (solvate)
Crystal form of precipitate obtained by recrystallization experiment ([2]; ethanol): free form (solvate)
Crystal form of precipitate obtained by recrystallization experiment [2, 7]: free form (solvate)
Crystal form of precipitate obtained by recrystallization experiment ([2]; ethyl acetate): free form (solvate)
Crystal form of precipitate obtained by recrystallization experiment [2, 8]: free form (solvate)
Crystal form of precipitate obtained by recrystallization experiment ([2]; isobutyl acetate): cocrystal * + free form (solvate)
Crystal form of precipitate obtained by recrystallization experiment [2, 9]: free form (solvate)
Crystal form of precipitate obtained by recrystallization experiment ([2]; isopropyl acetate): free form (solvate)
Crystal form of precipitate obtained by recrystallization experiment [2, 10]: cocrystal * + free form (solvate)
Crystal form of precipitate obtained by recrystallization experiment ([2]; methyl ethyl ketone): free form (solvate)
Crystal form of precipitate obtained by recrystallization experiment [2, 11]: cocrystal + free form (solvate)
Crystal form of precipitate obtained by recrystallization experiment ([2]; tetrahydrofuran): free form (solvate)
Crystal form of precipitate obtained by recrystallization experiment [2, 12]: cocrystal + free form (solvate)

CCc1cc2c(c(OCC(F)(F)F)c(C(=O)NC3CCN(C(=O)CO)CC3)n2C)c(=O)n1CC(=O)c1ccccc1 [anhydrous crystal of free form, 6-ethyl-N-[1-(hydroxyacetyl)piperidin-4-yl]-1-methyl-4-oxo-5-(2-oxo-2-phenylethyl)-3-(2,2,2-trifluoroethoxy)-4,5-dihydro-1H-pyrrolo[3,2-c]pyridine-2-carboxamide, reference compound]
Crystal form of residue after slurry experiment ([1]; 2-propanol): free form (solvate)
Crystal form of residue after slurry experiment ([1]; acetone): free form (solvate)
Crystal form of residue after slurry experiment ([1]; anisole): free form (solvate)
Crystal form of residue after slurry experiment ([1]; distilled water): free form (solvate)
Crystal form of residue after slurry experiment ([1]; ethanol): free form (solvate)
Crystal form of residue after slurry experiment ([1]; ethyl acetate): free form (solvate)
Crystal form of residue after slurry experiment ([1]; methyl ethyl ketone): free form (solvate)
Crystal form of residue after slurry experiment ([1]; tetrahydrofuran): free form (solvate)
solubility at 24 hr ([3]; Fasted State Simulated Intestinal Fluid (FaSSIF), FaSSIF): 23.9 ± 0.1 µg/mL (≈ 41.5 µM)
solubility at 24 hr ([3]; Fed State Simulated Intestinal Fluid (FeSSIF), FeSSIF): 88.7 ± 0.7 µg/mL (≈ 154 µM)
solubility at 24 hr ([3]; Japanese Pharmacopoeia 1st fluid for dissolution test (JP1), simulated gastric fluid, JP1 (Japanese Pharmacopoeia 1st fluid for dissolution test)): 20.6 ± 0.4 µg/mL (≈ 35.7 µM)
solubility at 24 hr ([3]; distilled water, concentration of API): 21.5 ± 0.5 µg/mL (≈ 37.3 µM)
Crystal form of precipitate obtained by recrystallization experiment ([2]; 2-propanol): free form (solvate)
Crystal form of precipitate obtained by recrystallization experiment [2, 4]: free form (solvate)
Crystal form of precipitate obtained by recrystallization experiment ([2]; acetone): free form (solvate)
Crystal form of precipitate obtained by recrystallization experiment [2, 5]: free form (solvate)
Crystal form of precipitate obtained by recrystallization experiment ([2]; anisole): free form (solvate)
Crystal form of precipitate obtained by recrystallization experiment [2, 6]: free form (solvate)
Crystal form of precipitate obtained by recrystallization experiment ([2]; ethanol): free form (solvate)
Crystal form of precipitate obtained by recrystallization experiment [2, 7]: free form (solvate)
Crystal form of precipitate obtained by recrystallization experiment ([2]; ethyl acetate): free form (solvate)
Crystal form of precipitate obtained by recrystallization experiment [2, 8]: free form (solvate)
Crystal form of precipitate obtained by recrystallization experiment ([2]; isobutyl acetate): free form solvate)
Crystal form of precipitate obtained by recrystallization experiment ([2]; isopropyl acetate): free form (solvate)
Crystal form of precipitate obtained by recrystallization experiment ([2]; methyl ethyl ketone): free form (solvate)
Crystal form of precipitate obtained by recrystallization experiment [2, 11]: free form (solvate)
Crystal form of precipitate obtained by recrystallization experiment ([2]; tetrahydrofuran): free form (solvate)
Crystal form of precipitate obtained by recrystallization experiment [2, 12]: free form (solvate)

CCc1cc2c(c(OCC(F)(F)F)c(C(=O)NC3CCN(C(=O)CO)CC3)n2C)c(=O)n1CC(=O)c1ccccc1.O=C(O)C(O)C(O)C(=O)O [cocrystal with L-tartaric acid, cocrystal of 6-ethyl-N-[1-(hydroxyacetyl)piperidin-4-yl]-1-methyl-4-oxo-5-(2-oxo-2-phenylethyl)-3-(2,2,2-trifluoroethoxy)-4,5-dihydro-1H-pyrrolo[3,2-c]pyridine-2-carboxamide and L-tartaric acid]
Crystal form of residue after slurry experiment ([1]; 2-propanol): cocrystal* + free form (solvate)
Crystal form of residue after slurry experiment ([1]; acetone): cocrystal *
Crystal form of residue after slurry experiment ([1]; anisole): cocrystal* + free form (solvate)
Crystal form of residue after slurry experiment ([1]; distilled water): cocrystal* + free form (solvate)
Crystal form of residue after slurry experiment ([1]; ethanol): cocrystal * + free form (solvate)
Crystal form of residue after slurry experiment ([1]; ethyl acetate): cocrystal* + free form (solvate)
Crystal form of residue after slurry experiment ([1]; methyl ethyl ketone): cocrystal* + free form (solvate)
Crystal form of residue after slurry experiment ([1]; tetrahydrofuran): cocrystal* + free form (solvate)
Crystal form of precipitate obtained by recrystallization experiment ([2]; 2-propanol): cocrystal *
Crystal form of precipitate obtained by recrystallization experiment [2, 4]: cocrystal *
Crystal form of precipitate obtained by recrystallization experiment ([2]; acetone): free form (solvate)
Crystal form of precipitate obtained by recrystallization experiment [2, 5]: cocrystal * + free form (solvate)
Crystal form of precipitate obtained by recrystallization experiment ([2]; anisole): no precipitate
Crystal form of precipitate obtained by recrystallization experiment [2, 6]: free form (solvate)
Crystal form of precipitate obtained by recrystallization experiment ([2]; ethanol): free form (solvate)
Crystal form of precipitate obtained by recrystallization experiment [2, 7]: free form (solvate)
Crystal form of precipitate obtained by recrystallization experiment ([2]; ethyl acetate): free form (solvate)
Crystal form of precipitate obtained by recrystallization experiment [2, 8]: cocrystal * + free form (solvate)
Crystal form of precipitate obtained by recrystallization experiment ([2]; isobutyl acetate): cocrystal *
Crystal form of precipitate obtained by recrystallization experiment [2, 9]: cocrystal *
Crystal form of precipitate obtained by recrystallization experiment ([2]; isopropyl acetate): free form (solvate)
Crystal form of precipitate obtained by recrystallization experiment [2, 10]: cocrystal *
Crystal form of precipitate obtained by recrystallization experiment ([2]; methyl ethyl ketone): free form (solvate)
Crystal form of precipitate obtained by recrystallization experiment [2, 11]: cocrystal *
Crystal form of precipitate obtained by recrystallization experiment ([2]; tetrahydrofuran): free form (solvate)
Crystal form of precipitate obtained by recrystallization experiment [2, 12]: cocrystal *
